Like-named read-outs stand apart in the source and are kept apart here.
Legend:
[1] = tested on: cardiomyocytes derived from hiPSCs from a LQTS3 patient
[2] = tested on: normal human induced pluripotent stem cell (hiPSC) cardiomyocyte; settings: for WT-Fold Prolongation: APD
[3] = LQT-3 cardiomyocytes, AP shortening
[4] = WT cardiomyocytes, AP prolongation

SMILES | LQT-Cessation Dose ([1]; LQT3 cardiomyocytes) | LQT-Fold Shortening ([1]; LQT3 cardiomyocytes) | WT-Fold Prolongation ([2]; normal hiPSC cardiomyocytes) | Cessation of Beating ([2]; normal hiPSC cardiomyocytes) | WT-Prolongation Dose ([2]; normal hiPSC cardiomyocytes) | also measured
Cc1cccc(Cl)c1OCC(N)C1CCCCC1.Cl (stereo not drawn) [Compound 76] | 66 µM | 1.244 | None | 66 µM | None | 
CNC(COc1cccc(C)c1C)c1ccccc1 (stereo not drawn) [Compound 34, 2-(2,3-dimethylphenoxy)-N-methyl-1-phenylethanamine] | 66 µM | 1.29 | None | 133 µM | None | 
COCCNC(COc1cnccc1C)c1ccccc1 (stereo not drawn) [Compound 123] |  |  |  |  |  | LQT-Fold Shortening ([1]; LQT-3 cardiomyocytes): 1.402; LQT-EC50 (μM) Shortening [1, 3]: Shortens; WT-EC50 (μM) Prolongation [2, 4]: Does Not Prolong AP
Cc1cccc(C)c1OCC(C)NCCc1ccccc1 (stereo not drawn) [Compound 44, 1-(2,6-dimethylphenoxy)-N-(2-phenylethyl)propan-2-amine] | 7.4 µM | 1.7 | 2.698 | 133 µM |  | WT-EAD Dose ([2]; normal hiPSC cardiomyocytes): 22 µM
Cc1ccnc(OCC(N)c2ccccc2)c1 (stereo not drawn) [Compound 95, 2-((4-methylpyridin-2-yl)oxy)-1-phenylethan-1-amine] | 22 µM | 1.22 | 2.68 | None |  | WT-EAD Dose ([2]; normal hiPSC cardiomyocytes): 133 µM
Cc1ccc(OCC(N)c2ccccc2)c(C)n1 (stereo not drawn) [Compound 119] |  |  |  |  |  | LQT-Fold Shortening ([1]; LQT-3 cardiomyocytes): 1.123; LQT-EC50 (μM) Shortening [1, 3]: Shortens; WT-EC50 (μM) Prolongation [2, 4]: Does Not Prolong AP; WT-Cessation Dose (μM) ([2]; WT cardiomyocytes, cessation of beating): No cessation of beating
Cc1cccc(OCC(C)N)c1.Cl (stereo not drawn) [Compound 86] | None | 1.418 | 1.68 | None |  | LQT-IC50 (uM)-Shortening ([1]; APD shortening, LQT3 cardiomyocytes): Shortens; WT-EAD Dose ([2]; normal hiPSC cardiomyocytes): 66 µM
Cc1cccc(C)c1OCC(=NOCc1ccccc1)C1CC1 [Compound 46] |  | 1.67 | None |  | None | LQT-Cessation Dose [1]: None; Cessation of Beating [2]: None
Cc1cccc(C)c1OCC(O)C(C)(C)C (stereo not drawn) [Compound 22] | None | 1.29 |  |  |  | 
CCNC(COc1cccc(C)c1C)c1ccccc1 (stereo not drawn) [Compound 33, 2-(2,3-dimethylphenoxy)-N-ethyl-1-phenylethanamine] | 22 µM | None | None | 133 µM | None | LQT-Shortening Dose ([1]; LQT3 cardiomyocytes): None
CC(N)COc1ccccc1C(F)(F)F (stereo not drawn) [Compound 51, 1-(2-(Trifluoromethyl)phenoxy)propan-2-amine] | None | 1.37 | None | None | None | 
NC(COc1ccccn1)c1ccccc1 (stereo not drawn) [Compound 20, 1-phenyl-2-(pyridin-2-yloxy)ethanamine] | None | None | None | None | None | LQT-Shortening Dose ([1]; LQT3 cardiomyocytes): None; LQT-EC50 (μM) Shortening ([1]; pyridyl derivatives): Does Not Shorten; LQT-Fold Shortening ([1]; pyridyl derivatives): Does Not Shorten; LQT-Shortening Dose ([1]; pyridyl derivatives): Does Not Shorten; WT-Cessation Dose ([2]; pyridyl derivatives): No cessation of beating; WT-EC50 (μM) Prolongation ([2]; pyridyl derivatives): Does Not Prolong AP
Cc1cc(C)cc(OCC(N)c2ccc3ccccc3c2)c1 (stereo not drawn) [Compound 135] |  |  |  |  |  | LQT-Fold Shortening ([1]; LQT-3 cardiomyocytes): 1.667; LQT-Shortening Dose ([1]; LQT-3 cardiomyocytes): 133 µM; LQT-EC50 (μM) Shortening [1, 3]: Shortens; LQT-Cessation Dose ([1]; LQT-3 cardiomyocytes, cessation of beating): 200 µM; WT-EC50 (μM) Prolongation [2, 4]: Does Not Prolong AP
Cc1ccc(OCC(N)c2ccccc2)cc1C.Cl (stereo not drawn) [Compound 75] | 66 µM | 1.370 | None | 66 µM | None | 
Cc1cccc(C)c1OCC(C)O (stereo not drawn) [Compound 37] | None | None | None | None | None | LQT-Shortening Dose ([1]; LQT3 cardiomyocytes): None
Cc1cccc2c1OCC(C1CC1)NC2.Cl (stereo not drawn) [Compound 74] | None | None | 2.633 | None |  | LQT-Shortening Dose ([1]; LQT3 cardiomyocytes): None; WT-EAD Dose ([2]; normal hiPSC cardiomyocytes): 133 µM
CC(N)COc1ccccn1 (stereo not drawn) [Compound 48, (Pyridin-2-yloxy)propan-2-amine] | None | None | None | None | None | LQT-Shortening Dose ([1]; LQT3 cardiomyocytes): None; LQT-EC50 (μM) Shortening ([1]; pyridyl derivatives): Does Not Shorten; LQT-Fold Shortening ([1]; pyridyl derivatives): Does Not Shorten; LQT-Shortening Dose ([1]; pyridyl derivatives): Does Not Shorten; WT-Cessation Dose ([2]; pyridyl derivatives): No cessation of beating; WT-EC50 (μM) Prolongation ([2]; pyridyl derivatives): Does Not Prolong AP
NC(COc1cc(C(F)(F)F)ccn1)c1ccccc1 (stereo not drawn) [Compound 97, 1-phenyl-2-((4-(trifluoromethyl)pyridin-2-yl)oxy)ethan-1-amine] | None | 1.1 | None | None | None | WT-EAD Dose ([2]; normal hiPSC cardiomyocytes): 133 µM
COc1ccc(C(N)COc2c(C)cccc2C)cc1 (stereo not drawn) [Compound 15, 2-(2,6-dimethylphenoxy)-1-(4-methoxyphenyl)ethanamine] | 66 µM | 1.42 | None | 66 µM | None | 
Cc1ccc(OCC(N)C2CC2)cc1C.Cl (stereo not drawn) [Compound 77] | 200 µM | 1.18 | None | 66 µM | None | 
Cc1cc(C)cc(OCC(NCCN2CCOCC2)c2ccccc2)c1 (stereo not drawn) [Compound 98] | 66 µM | 1.3 | 1.54 |  |  | 
NC(COc1cncc(C(F)(F)F)c1)c1ccccc1 (stereo not drawn) [Compound 116] |  |  |  |  |  | LQT-Fold Shortening ([1]; LQT-3 cardiomyocytes): 1.422; LQT-EC50 (μM) Shortening [1, 3]: Shortens; WT-EC50 (μM) Prolongation [2, 4]: Does Not Prolong AP
Cc1cccc(C)c1OCC(C)NCc1ccccc1 (stereo not drawn) [Compound 42, 1-(2,6-dimethylphenoxy)-N-benzylpropan-2-amine] |  | 1.26 | 1.684 |  |  | LQT-Cessation Dose ([1]; human, 5 min): 133 µM; Cessation of Beating ([2]; human, 5 min): 200 µM
OCCNC(COc1cc(C(F)(F)F)cc(C(F)(F)F)c1)c1ccccc1 (stereo not drawn) [Compound 93] | 22 µM | 1.5 | None | 66 µM | None | 
Cc1cc(OCC(N)c2ccccc2)cc(C)n1.Cl (stereo not drawn) [Compound 79] | None | 1.145 | 5.06 | None |  | WT-EAD Dose ([2]; normal hiPSC cardiomyocytes): 200 µM
Cc1cc(C)cc(OCC(N)c2ccccc2)c1 (stereo not drawn) [Compound 104b] |  |  |  |  |  | EC50 ([1]; read-out: LQT-EC50 (μM)-Shortening, 'No AP' wraps to 'No AP shortening'): 0.87 µM

From patent US11492325B2, “Compounds as inhibitors of sodium channels” (Human BioMolecular Research Institute, priority 2016, dated 2022)
